Experimental data taken from US11072591B2, “Tetrazole compounds and their use in the treatment of tuberculosis” (GLAXOSMITHKLINE INTELLECTUAL PROPERTY DEVELOPMENT LIMITED, priority 2017, dated 2021).
In brackets after ≈: the same amount, converted by molar mass.

These molecules were tested on M. tuberculosis H37Rv (assay: Mycobacterium tuberculosis H37Rv Inhibition Assay (Whole Cell Assay), MIC). Details: 144 h, M. tuberculosis H37Rv, Middlebrook 7H9 + ADC, 37° C. six days, resazurin readout, read-out: MIC_H37Rv.
Type: cell-based

Row | Compound | MIC [µM]
1 | O=S(=O)(NCCO)c1ccc(-c2nnn(CC3CCCCO3)n2)cc1 (racemic) [Example 7, N-(2-hydroxyethyl)-4-(2-((tetrahydro-2H-pyran-2-yl)methyl)-2H-tetrazol-5-yl)benzenesulfonamide] | < 0.1
2 | Cc1cc(S(=O)(=O)NCCO)ccc1-c1nnn(CC2CCCCO2)n1 (single isomer, unassigned) [Example 74 Isomer 1, N-(2-hydroxyethyl)-3-methyl-4-(2-((tetrahydro-2H-pyran-2-yl)methyl)-2H-tetrazol-5-yl)benzenesulfonamide] | 5 to 10
3 | O=S(=O)(NCCO)c1ccc(-c2nnn(Cc3ccncn3)n2)cc1 [Example 2, N-(2-hydroxyethyl)-4-(2-(pyrimidin-4-ylmethyl)-2H-tetrazol-5-yl)benzenesulfonamide] | 1 to 5
4 | CNS(=O)(=O)c1ccc(-c2nnn(Cc3ccc(F)cc3)n2)cc1 [Example 3, 4-(2-(4-fluorobenzyl)-2H-tetrazol-5-yl)-N-methylbenzenesulfonamide] | 1 to 5
5 | CNS(=O)(=O)c1ccc(-c2nnn(Cc3ccncc3)n2)cc1 [Example 4, N-methyl-4-(2-(pyridin-4-ylmethyl)-2H-tetrazol-5-yl)benzenesulfonamide] | 1 to 5
6 | CCNS(=O)(=O)c1ccc(-c2nnn(Cc3ccncc3)n2)cc1 [Example 5, N-ethyl-4-(2-(pyridin-4-ylmethyl)-2H-tetrazol-5-yl)benzenesulfonamide] | 10 to 25
7 | COc1ccc(Cn2nnc(-c3ccc(S(=O)(=O)NCCO)cc3)n2)cc1 [Example 6, N-(2-hydroxyethyl)-4-(2-(4-methoxybenzyl)-2H-tetrazol-5-yl)benzenesulfonamide] | < 0.1
8 | O=S(=O)(NCCO)c1ccc(-c2nnn(Cc3ccc(C(F)F)cc3)n2)cc1 [Example 10] | < 0.1
9 | O=S(=O)(NCCO)c1ccc(-c2nnn(CC3CCC(F)(F)CC3)n2)cc1 [Example 11] | < 0.1
10 | C[C@@H](O)CNS(=O)(=O)c1ccc(-c2nnn(Cc3ccncc3)n2)cc1 [Example 12] | < 0.1
11 | C[C@@H](O)CNS(=O)(=O)c1ccc(-c2nnn(CC3CCC(F)(F)CC3)n2)cc1 [Example 13] | 10 to 25
12 | C[C@H](O)CNS(=O)(=O)c1ccc(-c2nnn(Cc3ccc(F)cc3)n2)cc1 [Example 14] | 1 to 5
13 | O=S(=O)(NC(CO)CO)c1ccc(-c2nnn(Cc3ccc(F)cc3)n2)cc1 [Example 15] | 5 to 10
14 | O=S(=O)(NC(CO)CO)c1ccc(-c2nnn(Cc3ccncc3)n2)cc1 [Example 16] | 5 to 10
15 | O=S(=O)(NCC(O)CO)c1ccc(-c2nnn(Cc3ccc(F)cc3)n2)cc1 (stereo not shown) [Example 17] | 5 to 10
16 | O=S(=O)(NCCO)c1ccc(-c2nnn(Cc3ccc(Cl)cn3)n2)cc1 [Example 18, 4-(2-((5-chloropyridin-2-yl)methyl)-2H-tetrazol-5-yl)-N-(2-hydroxyethyl)benzenesulfonamide] | < 0.1
17 | CCc1ccc(Cn2nnc(-c3ccc(S(=O)(=O)NCCO)cc3)n2)cc1 [Example 19] | 1 to 5
18 | N#Cc1ccc(Cn2nnc(-c3ccc(S(=O)(=O)NCCO)cc3)n2)nc1 [Example 20] | < 0.1
19 | O=S(=O)(NCCO)c1ccc(-c2nnn(Cc3ncc(F)cc3F)n2)cc1 [Example 21] | 1 to 5
20 | Cc1cccc(Cn2nnc(-c3ccc(S(=O)(=O)NCCO)cc3)n2)n1 [Example 22] | 10 to 25

Row | Compound | MIC [µM]
21 | Cc1nccc(Cn2nnc(-c3ccc(S(=O)(=O)NCCO)cc3)n2)n1 [Example 23] | 5 to 10
22 | C[C@@H](O)CNS(=O)(=O)c1ccc(-c2nnn(Cc3ccc(F)cc3)n2)cc1 [Example 24] | < 0.1
23 | C[C@@H](O)CNS(=O)(=O)c1ccc(-c2nnn(Cc3ccc(F)cn3)n2)cc1 [Example 25] | < 0.1
24 | COc1ccc(Cn2nnc(-c3ccc(S(=O)(=O)NC[C@@H](C)O)cc3)n2)nc1 [Example 26] | 10 to 25
25 | Cc1ccc(Cn2nnc(-c3ccc(S(=O)(=O)NC[C@@H](C)O)cc3)n2)nc1 [Example 27] | 10 to 25
26 | COc1ccc(Cn2nnc(-c3ccc(S(=O)(=O)NC[C@@H](C)O)cc3)n2)cc1 [Example 28] | 1 to 5
27 | O=S(=O)(NCCO)c1ccc(-c2nnn(Cc3ccc(F)cn3)n2)cc1 [Example 29, 4-(2-((5-fluoropyridin-2-yl)methyl)-2H-tetrazol-5-yl)-N-(2-hydroxyethyl)benzenesulfonamide] | < 0.1
28 | COc1ccc(Cn2nnc(-c3ccc(S(=O)(=O)NCCO)cc3)n2)cc1F [Example 30] | < 0.1
29 | COc1ccc(Cn2nnc(-c3ccc(S(=O)(=O)NCCO)cc3)n2)nc1 [Example 31] | 1 to 5
30 | Cc1ccc(Cn2nnc(-c3ccc(S(=O)(=O)NCCO)cc3)n2)nc1 [Example 32] | 1 to 5
31 | O=S(=O)(NCCO)c1ccc(-c2nnn(Cc3ccncc3)n2)cc1 [Example 33] | < 0.1
32 | Cc1cc(Cn2nnc(-c3ccc(S(=O)(=O)NCCO)cc3)n2)ccn1 [Example 34] | 1 to 5
33 | NC(=O)CNS(=O)(=O)c1ccc(-c2nnn(Cc3ccc(F)cn3)n2)cc1 [Example 38] | < 0.1
34 | NC(=O)CNS(=O)(=O)c1ccc(-c2nnn(CC3CCC(F)(F)CC3)n2)cc1 [Example 39] | < 0.1
35 | Cc1ccc(Cn2nnc(-c3ccc(S(=O)(=O)NCC(N)=O)cc3)n2)nc1 [Example 40] | < 0.1
36 | Cc1cc(Cn2nnc(-c3ccc(S(=O)(=O)NCC(N)=O)cc3)n2)ccn1 [Example 42] | < 0.1
37 | COC(=O)CNS(=O)(=O)c1ccc(-c2nnn(Cc3ccc(F)cc3)n2)cc1 [Example 43] | 1 to 5
38 | COC(=O)CNS(=O)(=O)c1ccc(-c2nnn(Cc3ccncc3)n2)cc1 [Example 44] | 5 to 10
39 | NC(=O)CNS(=O)(=O)c1ccc(-c2nnn(Cc3ccncc3)n2)cc1 [Example 46, 2-(4-(2-(pyridin-4-ylmethyl)-2H-tetrazol-5-yl)phenylsulfonamido)acetamide] | < 0.1
40 | COc1cc(-c2nnn(Cc3ccc(F)cc3)n2)ccc1S(=O)(=O)NCCO [Example 47, 4-(2-(4-fluorobenzyl)-2H-tetrazol-5-yl)-N-(2-hydroxyethyl)-2-methoxybenzenesulfonamide] | < 0.1

Row | Compound | MIC [µM]
41 | COc1cc(-c2nnn(Cc3ccncc3)n2)ccc1S(=O)(=O)NCCO [Example 48, N-(2-hydroxyethyl)-2-methoxy-4-(2-(pyridin-4-ylmethyl)-2H-tetrazol-5-yl)benzenesulfonamide] | 1 to 5
42 | COc1cc(-c2nnn(Cc3ccc(C#N)cc3)n2)ccc1S(=O)(=O)NCCO [Example 49, 4-(2-(4-cyanobenzyl)-2H-tetrazol-5-yl)-N-(2-hydroxyethyl)-2-methoxybenzenesulfonamide] | < 0.1
43 | COc1cc(-c2nnn(Cc3ccc(F)cn3)n2)ccc1S(=O)(=O)NCCO [Example 50, 4-(2-((5-fluoropyridin-2-yl)methyl)-2H-tetrazol-5-yl)-N-(2-hydroxyethyl)-2-methoxybenzenesulfonamide] | 1 to 5
44 | CNS(=O)(=O)c1ccc(-c2nnn(Cc3ccncc3)n2)cc1OC [Example 51, 2-methoxy-N-methyl-4-(2-(pyridin-4-ylmethyl)-2H-tetrazol-5-yl)benzenesulfonamide] | 1 to 5
45 | COc1cc(-c2nnn(Cc3ccncc3)n2)ccc1S(=O)(=O)NCC(N)=O [Example 55] | < 0.1
46 | N#CCNS(=O)(=O)c1ccc(-c2nnn(Cc3ccncc3)n2)cc1 [Example 56] | < 0.1
47 | N#CCNS(=O)(=O)c1ccc(-c2nnn(Cc3ccncn3)n2)cc1 [Example 58] | < 0.1
48 | N#CCNS(=O)(=O)c1ccc(-c2cn(Cc3ccncc3)nn2)cc1 [Example 60] | < 0.1
49 | N#CCNS(=O)(=O)c1ccc(-c2cn(Cc3ccc(F)cn3)nn2)cc1 [Example 61] | < 0.1
50 | O=S(=O)(NCCO)c1ccc(-c2cn(Cc3ccc(F)cn3)nn2)cc1 [Example 62, (4-(1-((5-fluoropyridin-2-yl)methyl)-1H-1,2,3-triazol-4-yl)-N-(2-hydroxyethyl)benzenesulfonamide)] | 1 to 5
51 | COc1ccc(Cn2cc(-c3ccc(S(=O)(=O)NCCO)cc3)nn2)cc1 [Example 63] | < 0.1
52 | O=S(=O)(NCCO)c1ccc(-c2cn(Cc3ccncc3)nn2)cc1 [Example 65] | < 0.1
53 | N#Cc1ccc(Cn2cc(-c3ccc(S(=O)(=O)NCCO)cc3)nn2)cc1 [Example 66] | < 0.1
54 | Cc1ccc(Cn2cc(-c3ccc(S(=O)(=O)NCCO)cc3)nn2)nc1 [Example 67] | 10 to 25
55 | NC(=O)CNS(=O)(=O)c1ccc(-c2cn(CC3CCC(F)(F)CC3)nn2)cc1 [Example 69] | 1 to 5
56 | C[C@@H](O)CNS(=O)(=O)c1ccc(-c2cn(Cc3ccc(F)cc3)nn2)cc1 [Example 70, (R)-4-(1-(4-fluorobenzyl)-1H-1,2,3-triazol-4-yl)-N-(2-hydroxypropyl) benzenesulfonamide] | < 0.1
57 | Cc1cc(-c2nnn(Cc3ccc(F)cn3)n2)ccc1S(=O)(=O)NCCO [Example 71, 4-(2-((5-fluoropyridin-2-yl)methyl)-2H-tetrazol-5-yl)-N-(2-hydroxyethyl)-2-methyl Benzenesulfonamide] | < 0.1
58 | Cc1cc(S(=O)(=O)NCCO)ccc1-c1nnn(Cc2ccc(F)cn2)n1 [Example 73, 4-(2-((5-fluoropyridin-2-yl)methyl)-2H-tetrazol-5-yl)-N-(2-hydroxyethyl)-3-methylbenzenesulfonamide] | < 0.1
59 | O=S(=O)(NCCO)c1ccc(-c2nnn(Cc3ccc(F)cn3)n2)cc1F [Example 75, 2-fluoro-4-(2-((5-fluoropyridin-2-yl)methyl)-2H-tetrazol-5-yl)-N-(2-hydroxyethyl) benzenesulfonamide] | < 0.1

Same assay, conditions: M. tuberculosis H37Rv whole cell assay, value from repeated testing of the compound, read-out: MIC

Row | Compound | MIC [µM]
60 | COc1cc(-c2nnn(C(C)c3ccc(F)cc3)n2)ccc1S(=O)(=O)NCC(N)=O (single isomer, unassigned) [Example 115 Isomer 2, 2-(4-(2-(1-(4-fluorophenyl)ethyl)-2H-tetrazol-5-yl)-2-methoxyphenylsulfonamido)acetamide] | 0.45 to 1.25 (≈ 0.196 to 0.543 µg/mL)
61 | C[C@@H](O)CNS(=O)(=O)c1ccc(-c2nnn(Cc3ccc(F)cn3)n2)cc1 [Example 25] | 0.6 (≈ 0.235 µg/mL)
62 | O=S(=O)(NCCO)c1ccc(-c2nnn(Cc3ccc(F)cn3)n2)cc1 [Example 29, 4-(2-((5-fluoropyridin-2-yl)methyl)-2H-tetrazol-5-yl)-N-(2-hydroxyethyl)benzenesulfonamide] | 0.07 to 0.16 (≈ 0.0265 to 0.0605 µg/mL)
63 | COc1cc(-c2nnn(Cc3ccc(F)cc3)n2)ccc1S(=O)(=O)NCC(N)=O [Example 53, 2-(4-(2-(4-fluorobenzyl)-2H-tetrazol-5-yl)-2-methoxyphenylsulfonamido)acetamide] | 0.04 (≈ 0.0168 µg/mL)
64 | O=S(=O)(NCCO)c1ccc(-c2nnn(Cc3ccc(F)cn3)n2)cc1F [Example 75, 2-fluoro-4-(2-((5-fluoropyridin-2-yl)methyl)-2H-tetrazol-5-yl)-N-(2-hydroxyethyl) benzenesulfonamide] | 0.16 (≈ 0.0634 µg/mL)
